# Reference: US5480914A, “Nonaqueous thixotropic drug delivery suspensions and methods of their use” (priority 1994, dated 1996)
# Entries after “also recorded” stand apart in the source; their conditions may differ. Where a name gives a salt, the structure may show the parent alone. Read-outs that look alike come from different tables or passages of the source.
# Legend:
# [1] = Stability of drugs and suspensions after gamma irradiation (chromatographic analysis)
# Protocol: Aseptic formulation of thixotropic pharmaceutical compositions was conducted in accordance with the teachings of the present invention as follows. […] Following the sizing operation, each individual drug was divided into lots, which were then placed in an atmosphere of either argon or air. Each lot was then sterilized using 1.0 or 2.5 Mrad of gamma radiation applied to the lots of each drug under argon or air. Concomitantly, colloidal silicon dioxide was sterilized using dry heat while perfluorodecalin was sterile filtered. The three components were then combined aseptically and blended using a high shear dispenser. The thixotropic pharmaceutical compositions were then analyzed by chromatographic techniques to determine the effect of gamma radiation on the stability of the ten drugs sterilized either in air or in the argon environment.
# [2] = cited from earlier work; for Density / Kin. viscosity / Specific heat / Surface tension: 25° C.; for Boiling point: ambient pressure
# rabbit eyes [3] = test system: rabbit eyes
# Protocol: As a control, an aqueous solution containing the same amount of drug was prepared. The final concentration of the brimonidine in both formulations was 0.1% w/v. The nonaqueous thixotropic compositions of the present invention were administered in a low dose volume of 8 μl, while the prior art aqueous control was administered in a volume of 50 μl. The drugs were administered to one eye of the rabbit with both eyes subsequently monitored for changes in intraocular pressure.
# glaucomatous monkeys [4] = assay: Intraocular pressure after levo-bunolol in conscious, glaucomatous monkeys; type: in vivo, monkey; conditions: 0.25% w/v, 8 μl thixotropic versus approximately 35 μl aqueous
# Protocol: (§1) To illustrate the high localized drug bioavailability and correspondingly low systemic side effects of the present invention, a pharmacology study was conducted on conscious, glaucomatous monkeys. Formulations of 0.25% w/v levo-bunolol, used to reduce intraocular pressure in glaucoma patients, were administered as an aqueous solution and as a thixotropic pharmaceutical composition made in accordance with the teachings of the present invention. The monkeys were monitored for reductions in intraocular pressure, indicating the desired localized drug action, and for changes in heart rate, indicating undesirable drug migration away from the target site and into the systemic circulation. The thixotropic compositions were administered in low dose volume 8 μl drops while the aqueous formulations were administered in prior art drop volumes of approximately 35 μl. FIG. 13A is the mean reduction in heart rate for the monkeys treated with the aqueous solution of the drug while FIG. 13B is the mean reduction in heart rate for the monkeys treated with the nonaqueous formulation.
# glaucomatous monkeys [5] = assay: Heart rate after topical levo-bunolol in conscious, glaucomatous monkeys; type: in vivo, monkey
# Protocol: as §1
# [6] = Flow curve analysis fitted to the Cross model (viscosity, yield stress); type: physicochemical
# Protocol: In order to determine the stress threshold at which the CSD network collapsed, stress sweeps were run on the five dispersions formulated in Example 1. The stress sweeps were conducted using a Carri-med and CNMR CS 100 rheometer with an optical encoder upgrade. The measuring geometry for all the CSD/perfluorodecalin dispersions was a 4 cm SS Flat Plate with solvent trap. The gap, selected after conducting probe studies using the 2.5% w/v CSD/perfluorodecalin dispersion, was set at 250 μm for the stress sweeps. The measuring geometry for perfluorodecalin was a recessed concentric cylinder and cup set at a 4 mm gap. These stress studies were run at 15° C. to minimize the evaporation of perfluorodecalin. For longer experiments (greater than 10 minutes), a cover was placed over the Flat Plate to prevent perfluorodecalin vaporization. FIG. 1 plots delta versus shear stress for each of the dispersions. Delta is the phase of the actual curve relative to the applied sinusoidal stress. […] This stress threshold is CSD concentration dependent and indicates the presence of an elastic three-dimensional network at low or resting stresses (i.e. low delta values). […]
# To further characterize the rheology of the dispersions formulated in Example 1, complete flow curves, fit to the Cross model, were generated over a broad range of shear rates. […] Yield stresses were calculated from flow curve data.
# [7] = test system: eyes of New Zealand albino rabbits; assay: Ocular toxicity of CSD in perfluorodecalin, gross and slit lamp examination; type: in vivo, rabbit
# Protocol: More specifically, CSD dispersions of 2% w/v, 1% w/v and 0.5% w/v were prepared as in Example 1 and topically administered to the rabbits six times, at one hour intervals. Dose volumes of 8 μl were used for each dispersion along with a perfluorodecalin control. Following the six topical installations, each of the eyes was subjected to gross and slit lamp examination.
# CHO cells = assay: Chinese hamster ovary (CHO) clonal cytotoxicity assay; type: cell-based; conditions: three-hour exposure
# Protocol: To confirm the lack of toxicity associated with the thixotropic compositions of the present invention, a Chinese hamster ovary (CHO) clonal assay was performed to measure the cytotoxic effects of CSD and perfluorodecalin on cell viability. As is well-known in the art, the CHO clonal assay is extremely sensitive and is often used to test pharmaceutical composition toxicity. Different cell populations were exposed to 0.5% w/v CSD in perfluorodecalin, and from 0.01% to 0.1% w/v AGN 191053 dispersed in a suspension of 0.5% w/v CSD in perfluorodecalin. Straight perfluorodecalin was used as a negative control with a three-hour exposure period for each formulation tested.
# rabbit eyes [8] = assay: Pupil diameter change after pilocarpine; type: in vivo
# Protocol: Three different concentrations of pilocarpine were formulated as prior art aqueous solutions and as exemplary nonaqueous thixotropic pharmaceutical compositions according to the teachings of the present invention. Specifically, aqueous solutions and nonaqueous suspensions of 0, 0.1%, 0.5% and 2% pilocarpine were formulated under sterile conditions. The nonaqueous drug suspensions were made using 0.5% CSD uniformly dispersed in perfluorodecalin. Both sets of formulations were administered to rabbit eyes in drop volumes of 8 μl using positive displacement pipettes. Changes in pupil diameter were monitored with three rabbits being used for each concentration of each formulation. In particular, FIG. 12A illustrates the effects of the three different concentrations of […] administered using the nonaqueous vehicle while FIG. 12B illustrates equivalent data for the prior art solubilized aqueous pilocarpine.
# [9] = 1.0 or 2.5 Mrad, under argon or air
smiles,measurement,setting,value
Brc1c(NC2=NCCN2)ccc2nccnc12 [AGN 190342],activity lost after gamma radiation,[1],No more than 5%
"FC1(F)C(F)(F)C(F)(F)C2(F)C(F)(C1(F)F)C(F)(F)C(F)(F)C1(F)C(F)(F)C(F)(F)C(F)(F)C(F)(F)C12F (centres unmarked) [PPP, perfluoroperhydrophenanthrene]",Density,[2],2.016 gms/mL
same,Kin. viscosity,[2],8.0 cSt
same,Specific heat,[2],0.27 g-cal/gm
same,Surface tension,[2],21.6 dynes/cm
same,Boiling point,[2],215 °C
O [Water],Density,[2],1.000 gms/mL
same,Kin. viscosity,[2],1.00 cSt
same,Specific heat,[2],1.00 g-cal/gm
same,Surface tension,[2],72.0 dynes/cm
Brc1c(NC2=NCCN2)ccc2nccnc12 [brimonidine],"peak mean intraocular pressure reduction, treated eye","rabbit eyes [3]; 0.1% w/v, 8 μl thixotropic versus 50 μl aqueous",comparable to the much larger aqueous based prior art dosage
same,"intraocular pressure response, untreated eye","rabbit eyes [3]; aqueous solution 0.1% w/v, 50 μl",undesirable pressure reduction in untreated eyes
same,"intraocular pressure response, untreated eye","rabbit eyes [3]; thixotropic composition 0.1% w/v, 8 μl, versus aqueous control",significantly less intraocular pressure response in the untreated eye; also recorded: significant lower decrease in intraocular pressure in the untreated eyes
CNCC(O)c1ccc(OC(=O)C(C)(C)C)c(OC(=O)C(C)(C)C)c1 (centres unmarked) [dipivalylepinephrine HCl],activity lost after gamma radiation,[1],No more than 5%
CC(C)(C)NC[C@H](O)COc1cccc2c1CCCC2=O [levo-bunolol HCl],activity lost after gamma radiation,[1],No more than 5%
CC(C)(C)NC[C@H](O)COc1cccc2c1CCCC2=O [levo-bunolol],"reduction in intraocular pressure, thixotropic versus aqueous",glaucomatous monkeys [4],almost identical
same,"decrease in heart rate, thixotropic relative to aqueous solution","glaucomatous monkeys [5]; 0.25% w/v, 8 μl thixotropic versus approximately 35 μl aqueous",65%
same,heart rate response,glaucomatous monkeys [5]; prior art aqueous delivery vehicle,undesirable decrease in heart rate
CC1COc2c(N3CCN(C)CC3)c(F)cc3c(=O)c(C(=O)O)cn1c23 (centres unmarked) [ofloxacin],activity lost after gamma radiation,[1],No more than 5%
"FC1(F)C(F)(F)C(F)(F)C2(F)C(F)(F)C(F)(F)C(F)(F)C(F)(F)C2(F)C1(F)F (centres unmarked) [perfluorodecalin, Perfluoro(decahydronaphthalene)]",viscosity of pure perfluorodecalin without CSD,[6],9.2 centipoise
same,Newtonian viscosity,[6]; 0% CSD,0.092 poise
same,toxicity (cornea),[7]; 6 topical doses of 8 μl at one hour intervals,"no discomfort, irritation, or toxicity"
same,eye discomfort,"[7]; rabbit, in vivo","no discomfort, irritation, or toxicity"
same,irritation (conjunctiva),"[7]; rabbit, in vivo","no discomfort, irritation, or toxicity"
same,chemical toxicity to CHO cells,CHO cells,Neither the perfluorodecalin nor the CSD/perfluorodecalin formulations exhibited any chemical toxicity
same,Density,[2],1.929 gms/mL
same,Kin. viscosity,[2],2.9 cSt
same,Specific heat,[2],0.22 g-cal/gm
same,Surface tension,[2],19.3 dynes/cm
same,Boiling point,[2],142 °C
same,specific gravity,[2]; used to convert drop weight to volume,1.93 g/mL
CC[C@@H]1C(=O)OC[C@@H]1Cc1cncn1C [pilocarpine],recovery period of pupil diameter,rabbit eyes [8]; nonaqueous formulation versus aqueous,prolonged recovery period
same,reduction in pupil size,"rabbit eyes [8]; nonaqueous thixotropic versus aqueous, equivalent drug concentrations, 8 μl","greater pharmaceutical effect, i.e. a reduction in pupil size"
CC(=O)OCC(=O)[C@@]1(O)CC[C@H]2[C@@H]3CCC4=CC(=O)C=C[C@]4(C)[C@H]3[C@@H](O)C[C@@]21C [prednisolone acetate],activity lost after gamma radiation,[1]; [9],No more than 5%
Cc1nnc(SCC2=C(C(=O)O)N3C(=O)[C@@H](NC(=O)Cn4cnnn4)[C@H]3SC2)s1 [sodium cephazolin],activity lost after gamma radiation,[1],No more than 5%
O=C(O)c1cc(=O)c2c(OCC(O)COc3cccc4oc(C(=O)O)cc(=O)c34)cccc2o1 [sodium cromoglycate],activity lost after gamma radiation,[1],No more than 5%
CC(C(=O)O)c1ccc(-c2ccccc2)c(F)c1 (centres unmarked) [sodium flurbiprofen],activity lost after gamma radiation,[1],No more than 5%
CC(C)(C)NC[C@H](O)COc1nsnc1N1CCOCC1 [timolol],activity lost after gamma radiation,[1]; [9],No more than 5%
